Converted amounts (≈) assume the structure as drawn.
What was measured:
[1] = test system: Mycobacterium bovis BCG str. ATCC 35743; experiment: Antitubercular activity against dormant Mycobacterium bovis BCG ATCC 35743 assessed as growth inhibition at 3 ug/mL by NR assay; type: functional
[2] = test system: Mycobacterium bovis BCG str. ATCC 35743; experiment: Antitubercular activity against dormant Mycobacterium bovis BCG ATCC 35743 assessed as growth inhibition at 10 ug/mL by NR assay; type: functional
[3] = test system: Mycobacterium tuberculosis; experiment: Antitubercular activity against dormant Mycobacterium tuberculosis H37Ra assessed as growth inhibition at 30 ug/mL by XTT reduction menadione assay; type: functional; details: read-out: GI
[4] = test system: Mycobacterium tuberculosis; experiment: Antitubercular activity against dormant Mycobacterium tuberculosis H37Ra assessed as growth inhibition at 10 ug/mL by XTT reduction menadione assay; type: functional; details: read-out: GI
[5] = test system: Mycobacterium tuberculosis; experiment: Antitubercular activity against dormant Mycobacterium tuberculosis H37Ra assessed as growth inhibition at 3 ug/mL by XTT reduction menadione assay; type: functional; details: read-out: GI
[6] = test system: Mycobacterium bovis BCG str. ATCC 35743; experiment: Antitubercular activity against dormant Mycobacterium bovis BCG ATCC 35743 assessed as growth inhibition at 30 ug/mL by NR assay; type: functional
[7] = (§1) Antitubercular activity against dormant Mycobacterium bovis BCG ATCC 35743 by NR assay; type: functional, Mycobacterium bovis BCG str. ATCC 35743
[8] = test system: Mycobacterium bovis BCG str. ATCC 35743; experiment: as §1; type: functional
[9] = test system: Mycobacterium tuberculosis; experiment: Antitubercular activity against dormant Mycobacterium tuberculosis H37Ra by XTT reduction menadione assay; type: functional, organism-based
[10] = Cytotoxicity against human MCF7 cells at 30 ug/mL by MTT assay; type: cell-based; details: read-out: INH
[11] = Cytotoxicity against human MCF7 cells at 10 ug/mL by MTT assay; type: cell-based; details: read-out: INH
[12] = Cytotoxicity against human MCF7 cells at 3 ug/mL by MTT assay; type: cell-based; details: read-out: INH
[13] = Cytotoxicity against human A549 cells at 30 ug/mL by MTT assay; type: cell-based; details: read-out: INH
[14] = Cytotoxicity against human A549 cells at 10 ug/mL by MTT assay; type: cell-based; details: read-out: INH
[15] = Cytotoxicity against human A549 cells at 3 ug/mL by MTT assay; type: cell-based; details: read-out: INH
[16] = Cytotoxicity against human HCT116 cells at 30 ug/mL by MTT assay; type: cell-based, HCT-116; details: read-out: INH
[17] = Cytotoxicity against human HCT116 cells at 10 ug/mL by MTT assay; type: cell-based, HCT-116; details: read-out: INH
[18] = Cytotoxicity against human HCT116 cells at 3 ug/mL by MTT assay; type: cell-based, HCT-116; details: read-out: INH
[19] = Cytotoxicity against human HCT116 cells after 48 and 72 hrs by MTT assay; type: cell-based, HCT-116; details: for GI50 at 72 h: HCT116 cells; for GI90: hct-116, 72 h
[20] = (§2) Cytotoxicity against human A549 cells after 48 and 72 hrs by MTT assay; type: cell-based; details: A549 cells
A549 = experiment: as §2; type: cell-based; details: a549, 72 h
[21] = (§3) Cytotoxicity against human MCF7 cells after 48 and 72 hrs by MTT assay; type: cell-based; details: MCF7 cells
MCF7 = experiment: as §3; type: cell-based; details: mcf7, 72 h
Escherichia coli = experiment: Antibacterial activity against Escherichia coli after 18 hrs by broth dilution method; type: functional, organism-based
Pseudomonas = experiment: Antibacterial activity against Pseudomonas after 18 hrs by broth dilution method; type: functional, organism-based
Staphylococcus aureus = experiment: Antibacterial activity against Staphylococcus aureus after 18 hrs by broth dilution method; type: functional, organism-based
Bacillus subtilis = experiment: Antibacterial activity against Bacillus subtilis after 18 hrs by broth dilution method; type: functional, organism-based

Compound	growth inhibition (GI) [1]	growth inhibition (GI) [2]	inhibition of growth at 30 µg/mL [3]	inhibition of growth at 10 µg/mL [4]	inhibition of growth at 3 µg/mL [5]	growth inhibition (GI) [6]	IC50 [7]	IC90 [8]	IC50 [9]	IC90 [9]	cytotoxicity at 30 ug/mL [10]	cytotoxicity at 10 ug/mL [11]	cytotoxicity at 3 ug/mL [12]	cytotoxicity at 30 ug/mL [13]	cytotoxicity at 10 ug/mL [14]	cytotoxicity at 3 ug/mL [15]	cytotoxicity at 30 ug/mL [16]	cytotoxicity at 10 ug/mL [17]	cytotoxicity at 3 ug/mL [18]	GI50 at 72 h [19]	other results
COc1ccc(C2SCC(=O)N2c2ccccc2)cc1 (configuration not stated)	23.2%	56.1%	83.3%	74.1%	45.1%	85.9%	8.7 µg/mL (≈ 30.5 µM)	> 30 µg/mL	4.2 µg/mL (≈ 14.7 µM)	> 30 µg/mL	18.3%	12.6%	-2.6%	-4.3%	0%	0%	8.4%	7.2%	-5.4%	> 100 µg/mL	GI90 [19]: > 100 µg/mL; GI50 at 72 h [20]: > 100 µg/mL; GI90 (A549): > 100 µg/mL; GI50 at 72 h [21]: > 100 µg/mL; GI90 (MCF7): > 100 µg/mL; IC50 (Escherichia coli): > 30 µg/mL; MIC (Escherichia coli): > 30 µg/mL; IC50 (Pseudomonas): > 30 µg/mL; MIC (Pseudomonas): > 30 µg/mL; IC50 (Staphylococcus aureus): > 30 µg/mL; MIC (Staphylococcus aureus): > 30 µg/mL; IC50 (Bacillus subtilis): > 30 µg/mL; MIC (Bacillus subtilis): > 30 µg/mL
COc1ccc(N2C(=O)CSC2c2ccccc2)cc1 (configuration not stated)	-0.1%	30.2%	91.4%	86%	65.4%	71.9%	> 30 µg/mL	> 30 µg/mL	2.2 µg/mL (≈ 7.71 µM)	24 µg/mL (≈ 84.1 µM)	15.4%	8.9%	-10%	4.4%	0%	-0.1%	10.2%	7.2%	-6.1%	> 100 µg/mL	GI90 [19]: > 100 µg/mL; GI50 at 72 h [20]: > 100 µg/mL; GI90 (A549): > 100 µg/mL; GI50 at 72 h [21]: > 100 µg/mL; GI90 (MCF7): > 100 µg/mL; IC50 (Escherichia coli): > 30 µg/mL; MIC (Escherichia coli): > 30 µg/mL; IC50 (Pseudomonas): > 30 µg/mL; MIC (Pseudomonas): > 30 µg/mL; IC50 (Staphylococcus aureus): > 30 µg/mL; MIC (Staphylococcus aureus): > 30 µg/mL; IC50 (Bacillus subtilis): > 30 µg/mL; MIC (Bacillus subtilis): > 30 µg/mL
O=C1CSC(c2ccc(F)cc2)N1c1ccccc1 (configuration not stated)	-10.7%	14.4%	92.2%	73.2%	25.6%	80.2%	20.9 µg/mL (≈ 76.5 µM)	> 30 µg/mL	6.8 µg/mL (≈ 24.9 µM)	27.5 µg/mL (≈ 101 µM)	33%	10.8%	-4.1%	0%	0%	0%	23.5%	14.6%	-0.5%	> 100 µg/mL	GI90 [19]: > 100 µg/mL; GI50 at 72 h [20]: > 100 µg/mL; GI90 (A549): > 100 µg/mL; GI50 at 72 h [21]: > 100 µg/mL; GI90 (MCF7): > 100 µg/mL; IC50 (Escherichia coli): > 30 µg/mL; MIC (Escherichia coli): > 30 µg/mL; IC50 (Pseudomonas): > 30 µg/mL; MIC (Pseudomonas): > 30 µg/mL; IC50 (Staphylococcus aureus): > 30 µg/mL; MIC (Staphylococcus aureus): > 30 µg/mL; IC50 (Bacillus subtilis): > 30 µg/mL; MIC (Bacillus subtilis): > 30 µg/mL
O=C1CSC(c2ccccc2)N1c1ccc(Cl)cc1 (configuration not stated)	1.3%	-11.3%	94.3%	24.2%	-17%	11.6%	> 30 µg/mL	> 30 µg/mL	17.3 µg/mL (≈ 59.7 µM)	28.7 µg/mL (≈ 99 µM)	38%	19.5%	11.2%	13.4%	0%	-12.3%	32.8%	30%	19%	> 100 µg/mL	GI90 [19]: > 100 µg/mL; GI50 at 72 h [20]: > 100 µg/mL; GI90 (A549): > 100 µg/mL; GI50 at 72 h [21]: > 100 µg/mL; GI90 (MCF7): > 100 µg/mL; IC50 (Escherichia coli): > 30 µg/mL; MIC (Escherichia coli): > 30 µg/mL; IC50 (Pseudomonas): > 30 µg/mL; MIC (Pseudomonas): > 30 µg/mL; IC50 (Staphylococcus aureus): > 30 µg/mL; MIC (Staphylococcus aureus): > 30 µg/mL; IC50 (Bacillus subtilis): > 30 µg/mL; MIC (Bacillus subtilis): > 30 µg/mL

From ChEMBL document CHEMBL3779788, “Facile synthesis of 1,3-thiazolidin-4-ones as antitubercular agents” (Bioorg Med Chem Lett, 2016)
